The values that follow come from US6235516A, “Biocatalysts with amine acylase activity” (Novartis AG, priority 1996, dated 2001).

“And” between values parts separate entries of the source, which are not always exact repeats. Identical values can stand only once. Like-named read-outs stand apart in the source and are kept apart here. Where only a bound is given, the exact number is not on record here.

Assay [1] deals with AcR5b-acylase. Put plainly: Activity of the AcR5b-acylase in the presence of potential enzyme activators and inhibitors. The format is biochemical, Arthrobacter aurescens AcR5b. The note with it: for Relative activity (%), EDTA reactivation: preincubated with 1 mM metal cation, then 10 mM EDTA for 30 min. The method, then: 40 μl of the concentrated enzyme solution from example 4d) are mixed with 360 μl of 1 and 10 mM solutions of the potential activators/inhibitors in 100 mM Tris-HCl buffer, pH 8, and incubated at room temperature for 30 min. These preincubated acylase solutions are used as the enzyme source for activity assays in the presence of the activator/inhibitor (see example 8) in the concentration used for the preincubation. The incubation time is 12 min. For the EDTA reactivation the acylase is first preincubated with the metal cation at 1 mM concentration (see above). After adding EDTA to a final concentration of 10 mM in form of a 110 mM solution in 100 mM Tris-HCl, pH 8, the acylase is preincubated a second time for 30 min., before the standard activity assay is performed.

Assay [2] deals with Rhodococcus globerulus K1/1 acylase. It counts as biochemical. The method, then:
The standard assay for K1/1-acylase activity used for monitoring the purification and for the enzymological characterization is performed by mixing 20 μl of an enzyme sample with 380 μl of a 5.55 mM solution of (S)-2-acetylamino-1-phenyl-4-pentene in 69 mM potassium phosphate buffer, pH 7, and incubating at 23° C. The dilution of the acylase and the incubation time are chosen so that not more than 1.3 mM of product are formed. The reaction is stopped by addition of 800 μl ice cold methanol. After centrifugation for 4 min at 11500 rpm in a Biofuge 15 (Heraeus Sepatech, Osterode, Germany) the supernatant is subjected to quantitative HPLC analysis (see example 1).
27.1. Activity of the Rhodococcus globerulus K1/1 acylase in the presence of potential enzyme activators and inhibitors: […]

Assay [3] deals with Ac6-acylase (Rhodococcus (subgen. Prescottella) equi, UniProt A0A3S5Y3Z2). Put plainly: Activity of the Ac6-acylase in the presence of potential enzyme activators and inhibitors. The format is biochemical. The note with it: for activity at 10000 µM: read-out: Relative activity (%). How it is done:
After an incubation at 30° C. for a time period allowing the liberation of 0 to 3 mM of 1-phenylethylamine 400 μl of ice cooled acetone are added to stop the reaction. The tube is mixed vigorously, put on ice for about 15 min., and then is centrifuged for 4 min at 11500 rpm in a Biofuge 15 (Heraeus Sepatech, Osterode Germany). The supernatant is subjected to quantitative HPLC analysis. If activity assays contain crude extracts of cells grown in the presence of N-acetyl-1-phenylethylamine a control assay without substrate has to be prepared in parallel in order to determine the 1-phenylethylamine content of the crude extract. For HPLC analysis sample volumes of 20 μl are injected onto a RP-8 column (LiChroCART 125-4, LiChrospher 100 RP-8 ([…]), guard column: LiChroCART 4-4, LiChrospher 100 RP-8 ([…]), Merck Co., Darmstadt Germany). The following gradient with a flow rate of 1.25 ml/min. is applied for the separation of the substrate N-acetyl-1-phenylethylamine and the product 1-phenylethylamine:
One unit (U) of acylase activity is defined as the amount of enzyme catalyzing the liberation of 1 μmol of 1-phenylethylamine per minute. The acylase concentration in the samples is calculated according to the following formula: […]
In the presence of various potential enzyme activators and inhibitors activity assays are performed according to the scheme given in example 1 by applying the following conditions and final concentrations:
(S)-N-acetyl-1-phenylethylamine 20 mM
Purified acylase from example 4 c 0.02 U/ml
Incubation time 120 min.

In assay [4] the target is T1, acylase from Rhodococcus equi Ac6 (Rhodococcus (subgen. Prescottella) equi, UniProt A0A3S5Y3Z2).
T1 construct: N-terminus […]
The assay is described as follows: Enzymatic hydrolysis of racemic amides with partially purified acylase from Rhodococcus equi Ac6. It counts as biochemical. Set-up: e.e. (R)-Amide: unit not given here. The method, then:
To 10 ml of a 20 mM solution of each of the racemic amides shown below 1 in 0.1 M phosphate buffer pH 7.0, 5 ml (1.3 units) of the enzyme is added and the solutions are shaken at 100 rpm and 30° C. [drawing 10] [drawing 11]
When the conversion reaches about 50% (checked by HPLC) the solutions are acidified to pH 2 by adding 1 N HCl and extracted three times with dichloromethane to obtain the unconverted amides. The aqueous layers are neutralized with 1 N NaOH solution and extracted again three times with dichloromethane to recover the formed amines. Both organic phases are dried with MgSO4, filtered and the solvent is distilled off. The amides are used directly for optical purity determinations (HPLC), whereas the obtained amines are converted to the acetamides by adding 100 μl triethylamine and 100 μl acetic anhydride to each sample and then analyzed for the optical purity by "chiral" HPLC.
The experiments are carried out in the same manner as described in example 22.

Setting [5] is: compound 1 mM, 30 min preincubation, Tris-HCl pH 8, none = 100.
[6] abbreviates: compound 10 mM, 30 min preincubation, values printed in brackets: precipitates formed, none = 100.
[7] abbreviates: compound 1 mM, 20 mM (S)-N-acetyl-1-phenylethylamine, Tris-HCl pH 8, 120 min, none = 100.
Setting [8] is: compound 10 mM, values in brackets: precipitates formed during the assay, none = 100.

T1 sequence (A0A3S5Y3Z2 1-487): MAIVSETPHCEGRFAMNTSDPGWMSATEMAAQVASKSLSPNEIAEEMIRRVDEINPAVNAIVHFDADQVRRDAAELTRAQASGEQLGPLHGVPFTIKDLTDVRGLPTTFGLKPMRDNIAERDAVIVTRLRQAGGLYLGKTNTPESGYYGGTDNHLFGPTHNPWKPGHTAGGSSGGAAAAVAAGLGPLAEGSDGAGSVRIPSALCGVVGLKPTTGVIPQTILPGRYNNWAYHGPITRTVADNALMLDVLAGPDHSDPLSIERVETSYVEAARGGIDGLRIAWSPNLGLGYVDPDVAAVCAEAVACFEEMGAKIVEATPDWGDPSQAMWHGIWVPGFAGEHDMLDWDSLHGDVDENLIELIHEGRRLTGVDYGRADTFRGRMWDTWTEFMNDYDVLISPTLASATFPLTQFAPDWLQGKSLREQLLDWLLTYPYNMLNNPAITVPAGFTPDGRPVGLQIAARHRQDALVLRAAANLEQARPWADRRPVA
Ac6-acylase, sequence (A0A3S5Y3Z2 entry or part of it): as the sequence (A0A3S5Y3Z2 1-487) above

As for `O[C@H](CS)[C@H](O)CS` (racemic) [Dithiothreitol], the “Relative activity (%)” value in assay [1] (setting [5]) was found to be 35%; in assay [1] (setting [6]) it was 5.4%; in assay [2] (compound 1 mM, none = 100) it was 112%; in assay [2] (compound 10 mM, none = 100), 77%; in assay [3] (setting [7]) it was 103%. In assay [3] (setting [8]), the activity at 10000 µM is 100%.
As to `CC(=O)NC(C)c1ccc2ccccc2c1` (racemic) [Substrate 7a], in assay [4] (enantioselectivity of the hydrolysis), the “Selectivity E” value was determined as 88. For the same compound, the “e.e. (S)-Amine” value in assay [4] (formed amine, analysed as acetamide) came out at 97.4. The “e.e. (R)-Amide” value in assay [4] (unconverted amide, chiral HPLC) worked out at 16.4.
Turning to `[Ba+2].[Cl-].[Cl-]` [BaCl2], the “Relative activity (%)” value was determined as 92% in assay [1] (setting [5]), 89% in assay [1] (setting [6]), 95% in assay [3] (setting [7]) and 99% in assay [3] (setting [8]).
With `[Ca+2].[Cl-].[Cl-]` [CaCl2], the “Relative activity (%)” value is on record as 92% in assay [1] (setting [5]); 88% in assay [1] (setting [6]); 89% in assay [2] (compound 1 mM, none = 100); 85% in assay [2] (compound 10 mM, none = 100); 90% in assay [3] (setting [7]); 83% in assay [3] (setting [8]).
`[Cl][Cd][Cl]` [CdCl2]: the “Relative activity (%)” value stood at 5% in assay [1] (setting [5]), 0% in assay [1] (setting [6]), 85% in assay [3] (setting [7]) and 38% in assay [3] (setting [8]). Also, in assay [1], the “Relative activity (%), EDTA reactivation” value stood at 79%.
As to `O=C(O)CC(O)(CC(=O)O)C(=O)O` [Citrate], the “Relative activity (%)” value was found to be 122% in assay [1] (setting [5]); 100% in assay [1] (setting [6]); 113% in assay [2] (compound 1 mM, none = 100); 133% in assay [2] (compound 10 mM, none = 100); 106% in assay [3] (setting [7]). For the same compound, the activity at 10000 µM in assay [3] (setting [8]) amounted to 91%.
In the case of `[Cl-].[Cl-].[Co+2]` [CoCl2], the “Relative activity (%)” value was 26% in assay [1] (setting [5]); 15% in assay [1] (setting [6]); 97% in assay [2] (compound 1 mM, none = 100); 86% in assay [2] (compound 10 mM, none = 100); 69% in assay [3] (setting [7]); 83% in assay [3] (setting [8]). Moreover, the “Relative activity (%), EDTA reactivation” value in assay [1] amounted to 91%.
In the case of `[Cl][Cu][Cl]` [CuCl2], the “Relative activity (%)” value is listed as 50% in assay [1] (setting [5]); 0% in assay [1] (setting [6]); 66% in assay [2] (compound 1 mM, none = 100); 50% in assay [2] (compound 10 mM, none = 100); 88% in assay [3] (setting [7]); 41% in assay [3] (setting [8]). Besides, the “Relative activity (%), EDTA reactivation” value in assay [1] turned out to be 86%.
As for `N[C@@H]1CONC1=O` [D-cycloserine], the “Relative activity (%)” value was found to be 104% in assay [2] (compound 1 mM, none = 100) and 96% in assay [2] (compound 10 mM, none = 100).
For the compound `O=C(O)CN(CCN(CC(=O)O)CC(=O)O)CC(=O)O` [EDTA], the “Relative activity (%)” value in assay [1] was 121; in assay [1] (pH 8), 119; in assay [2], 99 and 89; in assay [3] (pH 8), 102. The activity at 10000 µM in assay [3] amounted to 104%.
In the case of `[Cl][Fe]([Cl])[Cl]` [FeCl3], the “Relative activity (%)” value in assay [1] (setting [5]) is given as 121%; in assay [1] (setting [6]), 132%; in assay [2] (compound 1 mM, none = 100), 101%; in assay [2] (compound 10 mM, none = 100), 37%; in assay [3] (setting [7]), 101%; in assay [3] (setting [8]), 92%.
For `N[C@@H](CCC(=O)N[C@@H](CS)C(=O)NCC(=O)O)C(=O)O` [Glutathion, reduced], the “Relative activity (%)” value in assay [1] is 112; in assay [1] (pH 8), 113; in assay [2] it was 104 and 93; in assay [3] (pH 8), 106. For the same compound, the activity at 10000 µM in assay [3] turned out to be 102%.
In the case of `NC(=O)CI` [Iodoacetamide], the “Relative activity (%)” value in assay [1] (setting [5]) is 96%; in assay [1] (setting [6]), 29%; in assay [2] (compound 1 mM, none = 100) it was 104%; in assay [2] (compound 10 mM, none = 100), 67%; in assay [3] (setting [7]), 87%. The activity at 10000 µM in assay [3] (setting [8]) was 32%.
Consider `OCCS` [Mercaptoethanol], for which the “Relative activity (%)” value in assay [1] (setting [5]) turned out to be 115%; in assay [1] (setting [6]), 69%; in assay [2] (compound 1 mM, none = 100), 106%; in assay [2] (compound 10 mM, none = 100) it was 101%; in assay [3] (setting [7]), 104%. The activity at 10000 µM in assay [3] (setting [8]) worked out at 108%.
For `[Cl-].[Cl-].[Mg+2]` [MgCl2], the “Relative activity (%)” value in assay [1] (setting [5]) is recorded as 103%; in assay [1] (setting [6]), 93%; in assay [2] (compound 1 mM, none = 100), 101%; in assay [2] (compound 10 mM, none = 100) it was 87%; in assay [3] (setting [7]), 90%; in assay [3] (setting [8]), 99%.
Turning to `[Cl][Mn][Cl]` [MnCl2], the “Relative activity (%)” value in assay [1] (setting [5]) amounted to 99%; in assay [1] (setting [6]) it was 60%; in assay [2] (compound 1 mM, none = 100), 94%; in assay [2] (compound 10 mM, none = 100) it was 83%; in assay [3] (setting [7]) it was 87%; in assay [3] (setting [8]) it was 87%.
Regarding `[Cl][Ni][Cl]` [NiCl2], the “Relative activity (%)” value in assay [1] (setting [5]) was determined as 14%; in assay [1] (setting [6]) it was 0%; in assay [2] (compound 1 mM, none = 100) it was 87%; in assay [2] (compound 10 mM, none = 100) it was 80%; in assay [3] (setting [7]), 40%; in assay [3] (setting [8]), 10%. Also, the “Relative activity (%), EDTA reactivation” value in assay [1] is 85%.
As for `[Cl][Pb][Cl]` [PbCl2], the “Relative activity (%)” value in assay [1] (setting [5]) turned out to be 79%; in assay [1] (setting [6]), 9%; in assay [3] (setting [7]), 95%; in assay [3] (setting [8]) it was 99%. In addition, the “Relative activity (%), EDTA reactivation” value in assay [1] is reported as 102%.
On to `O=S(=O)(F)Cc1ccccc1` [Phenylmethyl-sulfonyl fluoride], for which the “Relative activity (%)” value in assay [1] (setting [5]) was determined as 44%; in assay [2] (compound 0.01 mM) it was 0%; in assay [2] (compound 0.1 mM), 0%; in assay [3] (compound 0.01 mM) it was 17%; in assay [3] (compound 0.1 mM), 4.8%; in assay [3] (setting [7]) it was 0%. Also, the “Relative activity (%)” value in assay [3] (setting [8]) was determined as 0%.
Consider `[Cl][V]([Cl])[Cl]` [VCl3], for which the “Relative activity (%)” value was found to be 96% in assay [1] (setting [5]), 106% in assay [1] (setting [6]), 89% in assay [3] (setting [7]) and 94% in assay [3] (setting [8]).
Turning to `[Cl-].[Cl-].[Zn+2]` [ZnCl2], the “Relative activity (%)” value was less than 1.5% in assay [1] (setting [5]); 0% in assay [1] (setting [6]); 66% in assay [2] (compound 1 mM, none = 100); 0% in assay [2] (compound 10 mM, none = 100); 68% in assay [3] (setting [7]); 47% in assay [3] (setting [8]). The “Relative activity (%), EDTA reactivation” value in assay [1] turned out to be 75%.
As to `O=C(O)c1cc[c]([Hg+])cc1.[OH-]` [p-hydroxy-mercuribenzoate], the “Relative activity (%)” value was determined as 89% in assay [2] (compound 1 mM, none = 100) and 96% in assay [2] (compound 10 mM, none = 100).
